PMC6615261, “Repurposing Azithromycin and Rifampicin Against Gram-Negative Pathogens by Combination With Peptidomimetics” (Frontiers in Cellular and Infection Microbiology, 2019)
Read-outs that look alike come from different tables or passages of the source. One block for each compound: values may come before it.

Tests used:
[1] = tested on: K. pneumoniae ST258
Procedure: (§1) The potential synergistic effects in peptidomimetic-antibiotic combinations were assessed by using a two-dimensional checkerboard assay (Garcia, [2010]). Briefly, twofold dilutions of peptide and antibiotic were prepared in MBH II media along the X- and Y-axis, respectively, in 96-well plates. The inoculum was added to the plates, and subsequently these were incubated for 18–20 h. All steps for inoculum preparation and broth microdilution were in accordance with the CLSI guidelines (Clinical and Laboratory Standards Institute, [2013]). The fractional inhibitory concentration index (FICI) was calculated as [MICA(A+B)/MICA(alone)] + [MICB(A+B)/MICB(alone)], where MICA(A+B) represents the MIC of antibiotic (A) in combination with peptidomimetic (B), while MICB(A+B) represents the MIC of peptidomimetic (B) in combination with antibiotic (A). MICA(alone) and MICB(alone) represent the MIC of each compound individually. FICI values of ≤0.5 were interpreted as synergy.

[2] = tested on: E. coli ST131; experiment: Potentiation of additional antibiotics (COMPAN1F plates), MIC; format: cell-based, Escherichia coli; details: for MIC of antibiotic in presence of peptidomimetic 1: + 0.5 μM peptidomimetic 1; for MIC of antibiotic in presence of peptidomimetic 15: + 0.5 μM peptidomimetic 15; for MIC: Escherichia coli, no peptidomimetic, read-out: MIC of antibiotic alone
Procedure: (§2) Minimal inhibitory concentrations (MICs) of peptidomimetics, antibiotics and their combinations were determined by broth microdilution according to the Clinical Laboratory Standards Institute performance standards (Clinical and Laboratory Standards Institute, [2013]). […] Since rifampicin and azithromycin mainly are used to treat infections with Gram-positive pathogens only CLSI clinical breakpoints were available for such bacteria. […] Potentiation of additional antibiotics by peptidomimetics was determined by using commercial 96-well plates containing varied concentrations of standard antibiotics (COMPAN1F; Trek Diagnostic Systems Inc.). The peptidomimetics were added immediately prior to inoculation with pathogen, and then MICs were determined as above. The MICs of peptidomimetic/antibiotic combinations were determined according to the method above, and the concentration ratios were selected based upon checkerboard results with 2:1 and 1:4 ratio of peptidomimetic with rifampicin or azithromycin, respectively. Minimal bactericidal concentrations (MBCs) were determined by using growth-curve assay plates. MIC plates were prepared as above, and then the plates were incubated at 37°C with continuous shaking. Growth was recorded at 10 min intervals as optical density (OD) at 600 nm during 24 h. At 24 h, for wells without growth, a sample was diluted 10-fold in sterile saline (0.9% sodium chloride) and plated onto MHA, following CLSI guidelines (Clinical and Laboratory Standards Institute, [1999]).

[3] = tested on: K. pneumoniae ST258; experiment: as above; format: cell-based, Klebsiella pneumoniae; details: for MIC of antibiotic in presence of peptidomimetic 1: + 1 μM peptidomimetic 1; for MIC of antibiotic in presence of peptidomimetic 15: + 1 μM peptidomimetic 15; for MIC of antibiotic in presence of peptidomimetic 26: + 1 μM peptidomimetic 26; for MIC: Klebsiella pneumoniae, read-out: MIC of antibiotic alone
Procedure: as §2

[4] = tested on: E. coli ST131
Procedure: as §1

[5] = tested on: P. aeruginosa ATCC 27853
Procedure: as §1

[6] = tested on: E. coli ST131; experiment: MIC by broth microdilution; format: cell-based, Escherichia coli; details: peptidomimetic alone
Procedure: as §2

[7] = tested on: NIH 3T3 and HepG2 cells; experiment: Effect on viability of mammalian cells (both cell lines); format: cell-based, mouse and human
Procedure: (§3) NIH 3T3 and HepG2 cells (both from ATCC, Manassas, VA, USA) were cultured in flat-bottomed 96-well MicroWell™ plates (NUNC, Roskilde, Denmark) at seeding densities of ~23,000 and ~22,000 cells/well, respectively, and then cultured for 22–24 h under standard culturing conditions (37°C, 5% CO2, humidified air) to reach 80–90% confluence. NIH 3T3 were cultured in Dulbecco's modified Eagle's medium (DMEM) supplemented with 10% (v/v) newborn-calf serum (NCS) (Gibco, Paisly, UK), while HepG2 were cultured in Eagle's minimum essential medium (EMEM) supplemented with 10% (v/v) fetal bovine serum (FBS, Gibco, Paisly, UK), sodium pyruvate (1 mM), and non-essential amino acids (1%, v/v). Both culturing media were further supplemented with penicillin (100 U/mL), streptomycin (100 μg/mL), and L-glutamine (2 mM).
(§4) Effect on cell viability was determined in NIH 3T3 fibroblasts and HepG2 hepatocytes by using the MTS/PMS assay measuring metabolic activity. Briefly, the adhered cells were washed with 37°C Hanks' balanced salt solution (HBSS from Sigma-Aldrich, St. Louis, MO, USA), containing 10 mM HEPES (AppliChem, Darmstadt, Germany), and adjusted to pH 7.4, and were then exposed for 1 h to 100 μL of test compound(s) dissolved in the appropriate culturing medium without serum for each cell line. After exposure the cells were washed with HBSS containing 10 mM HEPES (pH 7.4) and 100 μL of an MTS/PMS solution, consisting of 240 μg/mL MTS (Promega, Madison, WI, USA) and 2.4 μg/mL PMS (SigmaAldrich, Buchs, Switzerland) in HBSS, was added to the cells, which then were incubated for 1 h at 37°C with horizontal shaking under light protection. Absorbance was measured at 492 nm by using a POLARstar OPTIMA plate reader (BMG Labtech, Offenburg, Germany). The relative viability was calculated according to Equation (1) with absorbance values obtained after incubation of cells with test compound; incubation with SDS (0.2%, w/v in medium) defined 100% cell death (Abspos), while the absorbance of cells incubated with medium defined 0% cell death (Absneg).
(§5) (1) Relative viability(%)=(Abssample-Abspos)/(Absneg-Abspos)×100%
(§6) EC50 values were calculated by using GraphPad Prism 7 (GraphPad Software, La Jolla, CA, USA) via fitting of the relative cell viability to the concentration of the test compound by using Equation (2):
(§7) (2) Relative viability(%)= Top-Bottom/1+10^(LogIC50-Log[peptidomimetic]) ×Hill slope
With top and bottom representing the mean highest and lowest observed values, respectively. The Hill slope represents a factor for the steepness of the linear part of the curve. […] The selectivity index was calculated as the average effect on cell viability (EC50 values for HepG2 and NIH 3T3 cells) divided by the MIC.

[8] = MTS/PMS cell viability assay; format: cell-based, mouse; details: mouse, NIH 3T3 fibroblasts, 1 h exposure, read-out: Cytotoxicity NIH 3T3 EC50 ± SD
Procedure: as §3, §4, §5, §6, §7
(§8) With top and bottom representing the mean highest and lowest observed values, respectively. The Hill slope represents a factor for the steepness of the linear part of the curve. In order to prevent erroneous calculation, the top and bottom values were constrained to 100 and 0%, respectively. Data were collected from technical triplicates. The selectivity index was calculated as the average effect on cell viability (EC50 values for HepG2 and NIH 3T3 cells) divided by the MIC.

[9] = MTS/PMS cell viability assay; format: cell-based; details: human, HepG2 hepatocytes, 1 h exposure, read-out: Cytotoxicity HepG2 EC50 ± SD
Procedure: as §3, §4, §5, §6, §7, §8

[10] = tested on: K. pneumoniae ST258; experiment: Screening of peptidomimetic-antibiotic combinations (growth / growth inhibition); format: cell-based, Klebsiella pneumoniae; design: key to Growth in combination with RIF / Growth in combination with AZM: Growth (+); growth inhibition (–)
Procedure: as §2

[11] = tested on: P. aeruginosa ATCC 27853; experiment: MIC by broth microdilution; format: cell-based, Pseudomonas aeruginosa; details: peptidomimetic alone
Procedure: as §2

[12] = tested on: K. pneumoniae ST258; experiment: MIC by broth microdilution; format: cell-based, Klebsiella pneumoniae
Procedure: as §2

[13] = tested on: MDR E. coli ST131; experiment: Screening of peptidomimetic-antibiotic combinations (growth / growth inhibition); format: cell-based, Escherichia coli; design: key to Growth in combination with RIF / Growth in combination with AZM: Growth (+); growth inhibition (–)
Procedure: as §2

[14] = MIC of azithromycin combined with the labelled peptidomimetic
[15] = MIC of rifampicin combined with the labelled peptidomimetic
[16] = 0.5 μM peptidomimetic + 0.5 μg/mL rifampicin
[17] = peptidomimetic 0.5 μM + azithromycin 1 μg/mL
[18] = peptidomimetic 0.5 μM + rifampicin 0.5 μg/mL

Antibiotic MIC alone ([1]; checkerboard): 125 µg/mL
MIC of antibiotic in presence of peptidomimetic 26 ([2]; + 0.25 μM peptidomimetic 26): >4 µg/mL
MIC of antibiotic in presence of peptidomimetic 1 [2]: 4 µg/mL
MIC of antibiotic in presence of peptidomimetic 15 [2]: >4 µg/mL
MIC [2]: > 4 µg/mL
MIC of antibiotic in presence of peptidomimetic 1 [3]: >4 µg/mL
MIC of antibiotic in presence of peptidomimetic 15 [3]: >4 µg/mL
MIC of antibiotic in presence of peptidomimetic 26 [3]: 2 µg/mL
MIC ([3]; no peptidomimetic): > 4 µg/mL
MIC of antibiotic alone ([3]; no peptidomimetic): >4 µg/mL
Compound: CCC[C@@H]1C[C@@H](C(=O)N[C@@H]([C@H]2O[C@H](SC)[C@H](O)[C@@H](O)[C@H]2O)[C@H](C)Cl)N(C)C1 [Clindamycin]

Antibiotic MIC in combination (AZM) [1, 14]: 8 µg/mL
Antibiotic MIC in combination (RIF) [1, 15]: 0.5 µg/mL
Peptidomimetic MIC alone ([1]; checkerboard): 32 µM
Peptidomimetic MIC in combination ([1]; combined with AZM): 0.5 µM
Peptidomimetic MIC in combination ([1]; combined with RIF): 0.5 µM
Antibiotic MIC in combination (AZM) [4, 14]: 1 µg/mL
Antibiotic MIC in combination (RIF) [4, 15]: 0.5 µg/mL
Peptidomimetic MIC alone ([4]; checkerboard): 1 µM
Peptidomimetic MIC in combination ([4]; combined with AZM): 0.13 µM
Peptidomimetic MIC in combination ([4]; combined with RIF): 0.13 µM
Antibiotic MIC in combination (RIF) ([5]; P. aeruginosa ATCC 27853, MIC of rifampicin combined with the labelled peptidomimetic): 0.5 µg/mL
Peptidomimetic MIC alone ([5]; P. aeruginosa ATCC 27853, checkerboard): 1 µM
Peptidomimetic MIC in combination ([5]; P. aeruginosa ATCC 27853, combined with AZM): 0.5 µM
Peptidomimetic MIC in combination ([5]; P. aeruginosa ATCC 27853, combined with RIF): 0.5 µM
Reduction of the MIC of azithromycin ([5]; P. aeruginosa, sub-MIC concentrations of peptidomimetic): 32- to 512 fold
MIC E. coli ST131 [6]: 1 µM
MIC P. aeruginosa ATCC 27853 [11]: 1 µM
MIC K. pneumoniae ST258 ([12]; peptidomimetic alone): 32 µM
Compound: CC(=O)N[C@@H](CCCCN)C(=O)N(CCC(=O)N[C@@H](CCCCN)C(=O)N(CCC(=O)N[C@@H](CCCCN)C(=O)N(CCC(=O)N[C@@H](CCCCN)C(=O)N(CCC(=O)N[C@@H](CCCCN)C(=O)N(CCC(=O)N[C@@H](CCCCN)C(=O)N(CCC(=O)N[C@@H](CCCCN)C(=O)N(CCC(=O)N[C@@H](CCCCN)C(=O)N(CCC(N)=O)Cc1ccccc1)Cc1ccccc1)Cc1ccccc1)Cc1ccccc1)Cc1ccccc1)Cc1ccccc1)Cc1ccccc1)Cc1ccccc1 [Peptidomimetic 15, Ac-(Lys-βNPhe)8-NH2]
EC50 [7]: > 100 µM
EC50 at 1 h [8]: 217 ± 23.1 µM
EC50 at 1 h [9]: 121.37 ± 0.06 µM
Screening result with rifampicin [10, 16]: inhibit growth
Growth in combination with AZM [10, 17]: +
Growth in combination with RIF [10, 18]: –
Selectivity Index (SI) K. pneumoniae ST258 ([12]; average of EC50 (HepG2, NIH 3T3) divided by MIC): (5)
Screening result with rifampicin [13, 16]: inhibit growth
Growth in combination with AZM [13, 17]: –
Growth in combination with RIF [13, 18]: –

MIC of antibiotic in presence of peptidomimetic 1 [2]: >64 µg/mL
MIC of antibiotic in presence of peptidomimetic 15 [2]: >64 µg/mL
MIC [2]: > 64 µg/mL
MIC of antibiotic in presence of peptidomimetic 1 [3]: >64 µg/mL
MIC of antibiotic in presence of peptidomimetic 15 [3]: >64 µg/mL
MIC of antibiotic in presence of peptidomimetic 26 [3]: >64 µg/mL
MIC ([3]; no peptidomimetic): > 64 µg/mL
Compound: CC1(C)S[C@@H]2[C@H](NC(=O)[C@H](C(=O)O)c3ccsc3)C(=O)N2[C@H]1C(=O)O [Ticarcillin]
